Where two headings read alike, the source gives them in different places.

The conditions of data set [1]: rabbit, in vivo. Here is the method:
One eye of each of six rabbits was implanted at the pars plana with methotrexate (MTX)-lactic acid microspheres and in one eye of another six rabbits with hydrocortisone, acetate-lactic acid microspheres.
A 40% (by weight) mixture of MIX and hydrocortisone with polylactate polymer were solubilized in chloroform and ethanol (Table 1). Coacervation into microcapsules tool place in 500 ml of a 5% polyvinyl alcohol aqueous solution with moderate to high speed stirring. Evaporation was performed under light vacuum with constant stirring for an additional 8 hrs. The resulting microspheres measuring 0.1 to 0.5 mm were selected and dried in vacuum for an additional 24 to 48 hours. Approximately 25 microcapsules were implanted at the pars plana.

For data set [2] the following is noted: rabbit, in vivo. Here is the method:
A 40% (by weight) of MTX and hydrocortisone and polylactate polymer were mixed under moltened conditions (Table 2). The resulting mixture was plated into a thin layer of approximately 0.4 to 0.5 mm in thickness and cooled overnight at room temperature. A plaque measuring approximately 3×4 mm was fashioned from the layer and was surgically placed into the pars plana.
Plaques of MTX and hydrocortsone were given to one eye of each of 3 animals at the pars plana and over the vitreous base following scleral resection.
This is another data set of the same source.

Data set [3] in a line: In vitro drug release from polyurethane sheets. It is filed as physicochemical.
Method: After drying of the mixtures, implants were then cut from the resulting sheets of drug-filled polymer affixed to the release liner. The drug-release behavior of the polymeric, drug-containing sheets was then tested. The release liner was removed from an implant sheet and a weighed sample of the sheet added to a solution containing four parts by weight ethanol and six parts by weight of deionized water at 37° C. with slow stirring. The appearance of the dissolved drug was followed as a function of time by spectrophotometry.

Regarding `C[C@]12CCC(=O)C=C1CC[C@@H]1[C@@H]2[C@@H](O)C[C@@]2(C)[C@H]1CC[C@]2(O)C(=O)CO` [Hydrocortisone, hydrocortisone], the “drug concentration, RE PC” value in data set [1] (10080 min), in data set [1] (20160 min), in data set [1] (30240 min), in data set [1] (40320 min), in data set [1] (50400 min) and in data set [1] (60480 min) was 0 ng/mL each time. For the same molecule, the “drug concentration, RE PC” value in data set [2] (43200 min), in data set [2] (86400 min) and in data set [2] (129600 min) was 0 ng/mL each time.

As to `CN(Cc1cnc2nc(N)nc(N)c2n1)c1ccc(C(=O)N[C@@H](CCC(=O)O)C(=O)O)cc1` [MTX, methotrexate], the “drug concentration, LE PC” value in data set [1] (10080 min), in data set [1] (20160 min), in data set [1] (30240 min), in data set [1] (40320 min), in data set [1] (50400 min) and in data set [1] (60480 min) was 0 ng/mL in each case. Further, the “drug concentration, LE PC” value in data set [2] (43200 min), in data set [2] (86400 min) and in data set [2] (129600 min) was 0 ng/mL throughout.

`C[C@@H]1C[C@H]2[C@@H]3CCC4=CC(=O)C=C[C@]4(C)[C@@]3(F)[C@@H](O)C[C@]2(C)[C@@]1(O)C(=O)CO` [dexamethasone]: the “drug released from sheets” value in data set [3] (Example 1 polyurethane/dexamethasone sheet, ethanol/deionized water 4:6 by weight, 37° C., within 4 hrs) is given as “more than 50%”.

As for `Nc1nc(O)c2ncn(COC(CO)CO)c2n1` [gancyclovir], the “drug released from sheets” value in data set [3] (Example 2 polyurethane/gancyclovir sheet, in vitro as described above, after the first 2 hrs) is “more than 60%”.

The record behind these values is patent US5824072A, “Biocompatible ocular implants” (Oculex Pharmaceuticals, Inc., priority 1996, dated 1998).
